Source: ChEMBL document CHEMBL4251656, “Design, synthesis, and biological evaluation of novel catecholopyrimidine based PDE4 inhibitor for the treatment of atopic dermatitis” (Eur J Med Chem, 2018)
pIC50: −log10 of the molar value. The source made the active and inactive calls. No cut-off for these calls is given here.

Columns and labels:
[1] = target: T1, 3',5'-cyclic-AMP phosphodiesterase 4A (Homo sapiens, UniProt P27815); assay: Inhibition of recombinant full length human N-terminal GST-tagged PDE4A1 expressed in baculovirus infected Sf9 cells using cAMP as substrate after 1 hr by LANCE TR-FRET assay
[2] = target: T2, 3',5'-cyclic-AMP phosphodiesterase 4B (Homo sapiens, UniProt Q07343); assay: Inhibition of recombinant human full length N-terminal GST-tagged PDE4B1 expressed in baculovirus infected Sf9 cells using cAMP as substrate after 1 hr by LANCE TR-FRET assay
[3] = target: Dual 3',5'-cyclic-AMP and -GMP phosphodiesterase 11A (Homo sapiens, UniProt Q9HCR9); assay: Inhibition of PDE11A (unknown origin) using cAMP as substrate after 1 hr by LANCE TR-FRET assay
[4] = target: cGMP-inhibited 3',5'-cyclic phosphodiesterase 3B (Homo sapiens, UniProt Q13370); assay: Inhibition of recombinant human N-terminal GST-tagged PDE3B (592-end residues) expressed in baculovirus infected Sf9 cells using cAMP as substrate after 1 hr by LANCE TR-FRET assay
[5] = target: 3',5'-cyclic-AMP phosphodiesterase 4C (Homo sapiens, UniProt Q08493); assay: Inhibition of recombinant human full length N-terminal GST-tagged PDE4C1 expressed in baculovirus infected Sf9 cells using cAMP as substrate after 1 hr by LANCE TR-FRET assay
[6] = target: T1, 3',5'-cyclic-AMP phosphodiesterase 4A; assay: Inhibition of recombinant human N-terminal GST-tagged PDE4A4 (2 to 886 residues) expressed in baculovirus infected Sf9 cells using cAMP as substrate after 1 hr by LANCE TR-FRET assay
[7] = target: 3',5'-cyclic-AMP phosphodiesterase 4D (Homo sapiens, UniProt Q08499); assay: Inhibition of recombinant human N-terminal GST-tagged PDE4D7 (2 to 748 residues) expressed in baculovirus infected Sf9 cells using cAMP as substrate after 1 hr by LANCE TR-FRET assay
Mus musculus [8] = assay: Reversal of DNCB-induced atopic dermatitis-like symptoms in Balb/c mouse assessed as reduction in signs of edema administered topically once daily starting from day 6 post DNCB treatment up to 34 days by hematoxylin and eosin staining based light microscopic method; assay type: functional, organism-based
Mus musculus [9] = assay: Reversal of DNCB-induced atopic dermatitis-like symptoms in Balb/c mouse assessed as reduction in excoriation administered topically once daily starting from day 6 post DNCB treatment up to 34 days; assay type: functional, organism-based
Mus musculus [10] = assay: Reversal of DNCB-induced atopic dermatitis-like symptoms in Balb/c mouse assessed as reduction in hypertrophy administered topically once daily starting from day 6 post DNCB treatment up to 34 days by hematoxylin and eosin staining based light microscopic method; assay type: functional, organism-based
Mus musculus [11] = assay: Reversal of DNCB-induced atopic dermatitis-like symptoms in Balb/c mouse assessed as reduction in epidermal thickness administered topically once daily starting from day 6 post DNCB treatment up to 34 days by hematoxylin and eosin staining based light microscopic method; assay type: functional, organism-based
Homo sapiens = species on record: Homo sapiens; assay: Selectivity ratio of IC50 for nhibition of recombinant human N-terminal GST-tagged PDE4D7 (2 to 748 residues) expressed in baculovirus infected Sf9 cells to IC50 for recombinant full length human N-terminal GST-tagged PDE4B1 expressed in baculovirus infected Sf9 cells
Mus musculus [12] = assay: Reversal of DNCB-induced atopic dermatitis-like symptoms in Balb/c mouse assessed as reduction in TNF-alpha level in skin administered topically once daily starting from day 6 post DNCB treatment up to 34 days; assay type: functional, organism-based
Mus musculus [13] = assay: Reversal of DNCB-induced atopic dermatitis-like symptoms in Balb/c mouse assessed as reduction in serum Ig-E level administered topically once daily starting from day 6 post DNCB treatment up to 34 days; assay type: functional, organism-based
Mus musculus [14] = assay: Reversal of DNCB-induced atopic dermatitis-like symptoms in Balb/c mouse assessed as dorsal skin thickness administered topically once daily starting from day 6 post DNCB treatment up to 34 days (reference value: 1.19 millimeter); assay type: functional
Mus musculus [15] = assay: Reversal of DNCB-induced atopic dermatitis-like symptoms in Balb/c mouse assessed as reduction in hyperkeratosis administered topically once daily starting from day 6 post DNCB treatment up to 34 days by hematoxylin and eosin staining based light microscopic method; assay type: functional, organism-based
Mus musculus [16] = assay: Toxicity in Balb/c mouse assessed as effect on skin architecture administered topically once daily up to 34 days by hematoxylin and eosin staining based light microscopic method; assay type: organism-based; settings: in vivo, topical_or_ocular, 816 h
Mus musculus [17] = assay: Reversal of DNCB-induced atopic dermatitis-like symptoms in Balb/c mouse assessed as reduction in skin scaling or dryness administered topically once daily starting from day 6 post DNCB treatment up to 34 days; assay type: functional, organism-based
Mus musculus [18] = assay: Reversal of DNCB-induced atopic dermatitis-like symptoms in Balb/c mouse assessed as reduction in epidermal hyperplasia administered topically once daily starting from day 6 post DNCB treatment up to 34 days by hematoxylin and eosin staining based light microscopic method; assay type: functional, organism-based
Mus musculus [19] = assay: Reversal of DNCB-induced atopic dermatitis-like symptoms in Balb/c mouse assessed as reduction in hemorrhage administered topically once daily starting from day 6 post DNCB treatment up to 34 days; assay type: functional, organism-based
Mus musculus [20] = assay: Reversal of DNCB-induced atopic dermatitis-like symptoms in Balb/c mouse assessed as reduction in edema administered topically once daily starting from day 6 post DNCB treatment up to 34 days; assay type: functional, organism-based
Mus musculus [21] = assay: Reversal of DNCB-induced atopic dermatitis-like symptoms in Balb/c mouse assessed as reduction in inflammatory cell infilteration in epidermal and dermal region of skin administered topically once daily starting from day 6 post DNCB treatment up to 34 days by toluidine blue staining based light microscopic method; assay type: functional, organism-based
Mus musculus [22] = assay: Toxicity in Balb/c mouse assessed as induction of allergy administered topically once daily up to 34 days; assay type: organism-based; settings: in vivo, topical_or_ocular, 816 h
Mus musculus [23] = assay: Reversal of DNCB-induced atopic dermatitis-like symptoms in Balb/c mouse assessed as reduction in scratching frequency administered topically once daily starting from day 6 post DNCB treatment up to 34 days; assay type: functional, organism-based
Mus musculus [24] = assay: Reversal of DNCB-induced atopic dermatitis-like symptoms in Balb/c mouse assessed as reduction in erythema administered topically once daily starting from day 6 post DNCB treatment up to 34 days; assay type: functional, organism-based
Mus musculus [25] = assay: Reversal of DNCB-induced atopic dermatitis-like symptoms in Balb/c mouse assessed as reduction in skin erosion administered topically once daily starting from day 6 post DNCB treatment up to 34 days; assay type: functional, organism-based
[26] = target: T2, 3',5'-cyclic-AMP phosphodiesterase 4B; assay: Inhibition of recombinant full length human N-terminal GST-tagged PDE4B1 expressed in baculovirus infected Sf9 cells using cAMP as substrate after 1 hr by LANCE TR-FRET assay

Dual 3',5'-cyclic-AMP and -GMP phosphodiesterase 11A, sequence (Q9HCR9 whole entry): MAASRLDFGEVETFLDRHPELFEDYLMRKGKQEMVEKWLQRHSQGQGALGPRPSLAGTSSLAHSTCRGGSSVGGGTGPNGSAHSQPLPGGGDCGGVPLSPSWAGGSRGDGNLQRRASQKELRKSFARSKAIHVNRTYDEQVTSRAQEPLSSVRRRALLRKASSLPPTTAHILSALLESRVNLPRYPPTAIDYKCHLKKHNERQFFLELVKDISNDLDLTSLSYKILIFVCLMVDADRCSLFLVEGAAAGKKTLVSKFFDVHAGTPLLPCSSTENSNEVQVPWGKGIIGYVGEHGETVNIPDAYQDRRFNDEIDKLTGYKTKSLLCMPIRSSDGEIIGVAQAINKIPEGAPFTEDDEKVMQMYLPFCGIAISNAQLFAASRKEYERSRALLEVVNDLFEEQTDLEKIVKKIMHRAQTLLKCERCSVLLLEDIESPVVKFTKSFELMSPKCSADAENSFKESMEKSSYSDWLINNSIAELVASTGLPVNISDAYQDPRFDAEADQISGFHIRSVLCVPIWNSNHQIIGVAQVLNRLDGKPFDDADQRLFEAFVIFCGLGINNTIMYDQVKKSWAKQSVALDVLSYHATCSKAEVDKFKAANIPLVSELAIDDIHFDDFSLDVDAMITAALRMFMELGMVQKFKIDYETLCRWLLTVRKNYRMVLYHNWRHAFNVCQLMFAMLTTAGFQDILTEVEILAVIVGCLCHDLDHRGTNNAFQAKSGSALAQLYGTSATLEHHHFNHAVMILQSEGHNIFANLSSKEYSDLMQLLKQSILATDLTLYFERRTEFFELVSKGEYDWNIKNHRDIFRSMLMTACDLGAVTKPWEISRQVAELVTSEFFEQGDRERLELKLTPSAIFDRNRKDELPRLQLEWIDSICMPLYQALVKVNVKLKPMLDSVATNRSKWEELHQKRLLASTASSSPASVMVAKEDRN
T1 sequence (P27815 whole entry): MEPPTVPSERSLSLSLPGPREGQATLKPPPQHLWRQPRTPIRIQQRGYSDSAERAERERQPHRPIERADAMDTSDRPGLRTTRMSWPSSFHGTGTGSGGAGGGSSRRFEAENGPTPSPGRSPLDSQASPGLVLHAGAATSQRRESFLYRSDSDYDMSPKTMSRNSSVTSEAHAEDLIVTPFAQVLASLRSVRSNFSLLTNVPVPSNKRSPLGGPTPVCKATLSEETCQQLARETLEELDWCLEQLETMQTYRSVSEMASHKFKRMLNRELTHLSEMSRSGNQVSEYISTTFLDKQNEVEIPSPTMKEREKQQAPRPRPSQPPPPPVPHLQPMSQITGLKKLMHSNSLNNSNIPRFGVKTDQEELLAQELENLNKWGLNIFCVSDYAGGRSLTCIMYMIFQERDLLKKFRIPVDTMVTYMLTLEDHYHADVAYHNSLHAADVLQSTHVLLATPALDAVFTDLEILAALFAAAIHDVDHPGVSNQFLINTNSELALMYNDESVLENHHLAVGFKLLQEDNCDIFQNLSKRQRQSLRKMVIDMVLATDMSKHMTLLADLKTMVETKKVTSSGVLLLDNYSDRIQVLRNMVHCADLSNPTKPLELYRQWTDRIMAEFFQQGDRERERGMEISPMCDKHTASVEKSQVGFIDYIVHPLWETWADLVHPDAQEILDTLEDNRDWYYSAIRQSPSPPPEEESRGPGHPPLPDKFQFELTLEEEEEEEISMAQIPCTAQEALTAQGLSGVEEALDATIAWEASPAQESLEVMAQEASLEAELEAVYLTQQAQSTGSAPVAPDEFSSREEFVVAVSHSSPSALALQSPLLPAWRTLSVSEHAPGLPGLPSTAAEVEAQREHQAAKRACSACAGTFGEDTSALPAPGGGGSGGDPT
T2 sequence (Q07343 whole entry): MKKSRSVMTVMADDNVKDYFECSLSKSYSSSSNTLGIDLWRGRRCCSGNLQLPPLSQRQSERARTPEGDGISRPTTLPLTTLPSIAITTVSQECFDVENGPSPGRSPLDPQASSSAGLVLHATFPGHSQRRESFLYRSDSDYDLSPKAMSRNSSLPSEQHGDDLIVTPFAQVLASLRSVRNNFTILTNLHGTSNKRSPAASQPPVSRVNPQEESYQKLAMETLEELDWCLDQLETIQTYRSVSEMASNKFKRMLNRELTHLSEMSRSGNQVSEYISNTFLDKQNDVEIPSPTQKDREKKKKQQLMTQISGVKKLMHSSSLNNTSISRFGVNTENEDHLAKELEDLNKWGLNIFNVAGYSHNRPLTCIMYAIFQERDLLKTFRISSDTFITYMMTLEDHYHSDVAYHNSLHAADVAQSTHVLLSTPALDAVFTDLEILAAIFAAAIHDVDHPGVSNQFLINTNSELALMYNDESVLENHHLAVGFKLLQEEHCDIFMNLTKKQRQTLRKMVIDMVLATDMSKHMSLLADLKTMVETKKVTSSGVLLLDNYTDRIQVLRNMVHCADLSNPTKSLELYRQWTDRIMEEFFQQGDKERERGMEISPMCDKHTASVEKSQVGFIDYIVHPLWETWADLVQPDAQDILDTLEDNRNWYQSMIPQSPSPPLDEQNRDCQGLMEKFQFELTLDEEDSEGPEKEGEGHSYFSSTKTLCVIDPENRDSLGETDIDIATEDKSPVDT
3',5'-cyclic-AMP phosphodiesterase 4D, sequence (Q08499 whole entry, the tested form may be a part): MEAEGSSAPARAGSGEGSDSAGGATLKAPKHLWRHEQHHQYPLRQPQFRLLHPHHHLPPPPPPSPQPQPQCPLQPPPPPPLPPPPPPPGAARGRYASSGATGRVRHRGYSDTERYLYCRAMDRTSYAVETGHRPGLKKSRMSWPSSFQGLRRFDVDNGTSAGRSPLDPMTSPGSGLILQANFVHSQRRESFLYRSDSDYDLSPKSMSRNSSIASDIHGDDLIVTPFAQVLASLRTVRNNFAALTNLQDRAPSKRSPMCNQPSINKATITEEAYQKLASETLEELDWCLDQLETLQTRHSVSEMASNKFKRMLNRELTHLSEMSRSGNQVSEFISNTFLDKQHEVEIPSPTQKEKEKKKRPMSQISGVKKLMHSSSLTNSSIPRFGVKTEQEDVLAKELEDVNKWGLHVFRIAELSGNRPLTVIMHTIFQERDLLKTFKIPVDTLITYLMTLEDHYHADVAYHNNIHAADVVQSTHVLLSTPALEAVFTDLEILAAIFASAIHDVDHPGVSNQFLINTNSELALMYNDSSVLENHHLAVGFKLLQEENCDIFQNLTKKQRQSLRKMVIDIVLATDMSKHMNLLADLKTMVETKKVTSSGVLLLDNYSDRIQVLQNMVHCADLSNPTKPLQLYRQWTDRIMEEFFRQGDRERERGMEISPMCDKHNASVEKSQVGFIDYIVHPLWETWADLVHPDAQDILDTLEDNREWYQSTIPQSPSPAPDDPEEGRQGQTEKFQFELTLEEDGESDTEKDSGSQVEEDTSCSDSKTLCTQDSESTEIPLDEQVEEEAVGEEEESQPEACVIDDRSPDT
3',5'-cyclic-AMP phosphodiesterase 4C, sequence (Q08493 whole entry, the tested form may be a part): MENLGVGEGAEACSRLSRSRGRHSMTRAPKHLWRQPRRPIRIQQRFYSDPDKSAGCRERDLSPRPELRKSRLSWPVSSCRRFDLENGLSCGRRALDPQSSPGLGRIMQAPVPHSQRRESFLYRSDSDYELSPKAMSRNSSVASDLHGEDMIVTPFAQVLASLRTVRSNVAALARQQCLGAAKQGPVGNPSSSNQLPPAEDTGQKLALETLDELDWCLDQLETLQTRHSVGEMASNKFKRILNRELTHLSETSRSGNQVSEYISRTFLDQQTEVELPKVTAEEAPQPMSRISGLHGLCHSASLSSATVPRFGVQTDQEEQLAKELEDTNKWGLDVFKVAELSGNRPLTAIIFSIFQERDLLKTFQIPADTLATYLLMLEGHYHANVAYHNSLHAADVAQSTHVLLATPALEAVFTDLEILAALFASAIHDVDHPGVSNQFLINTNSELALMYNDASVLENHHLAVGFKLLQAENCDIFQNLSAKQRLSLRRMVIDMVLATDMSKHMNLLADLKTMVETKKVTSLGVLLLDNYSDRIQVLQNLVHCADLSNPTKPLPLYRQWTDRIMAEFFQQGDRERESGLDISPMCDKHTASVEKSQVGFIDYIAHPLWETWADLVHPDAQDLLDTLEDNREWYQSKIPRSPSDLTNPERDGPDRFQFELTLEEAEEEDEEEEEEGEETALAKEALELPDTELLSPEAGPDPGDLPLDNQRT

Row | SMILES | pIC50 [1] | pIC50 [2] | pIC50 [3] | pIC50 [5] | pIC50 [6] | pIC50 [7] | pIC50 [26] | also measured
1 | COc1ccc(NC(=O)c2cnc(SC)nc2N2CCOCC2)cc1OC | 6.12 | 7.51 | 6.32 | – | – | – | – | –
2 | COc1ccc(NC(=O)c2cnc(C(F)(F)F)nc2N2CCOCC2)cc1OC | 6.17 | 7.17 | 5.82 | 6.81 | 7.00 | 6.41 | – | pIC50 [4]: 6.02
3 | COc1ccc(-c2nc(C(F)(F)F)ncc2C(=O)Nc2ccncc2)cc1OC | 7.01 | 7.82 | 6.60 | – | – | – | – | Activity (Mus musculus [8]): Active; Activity (Mus musculus [9]): Active; Activity (Mus musculus [10]): Active; Activity (Mus musculus [11]): Active; Ratio IC50 (Homo sapiens): 7; Activity (Mus musculus [12]): Active; Activity (Mus musculus [13]): Active; Activity (Mus musculus [14]): 0.71 mm; Activity (Mus musculus [15]): Active; Activity (Mus musculus [16]): Non-Toxic; Activity (Mus musculus [17]): Active; Activity (Mus musculus [18]): Active; Activity (Mus musculus [19]): Active; Activity (Mus musculus [20]): Active; Activity (Mus musculus [21]): Active; Activity (Mus musculus [22]): Non-Toxic; Activity (Mus musculus [23]): Active; Activity (Mus musculus [24]): Active; Activity (Mus musculus [25]): Active
4 | COc1ccc(CCNC(=O)c2cnc(SC)nc2N2CCOCC2)cc1OC | – | 7.21 | 6.18 | 6.49 | 6.55 | 6.87 | 7.21 | –
5 | COc1ccc(CCNC(=O)c2cnc(SC)nc2N2CCN(CCO)CC2)cc1OC | – | – | – | – | – | – | 6.62 | –
6 | COc1ccc(-c2nc(C(F)(F)F)ncc2C(=O)Nc2c(C(C)C)cccc2C(C)C)cc1OC | – | – | – | – | – | – | 6.65 | –
7 | COc1ccc(-c2nc(C(F)(F)F)ncc2C(=O)Nc2c(Cl)cncc2Cl)cc1OC | 6.55 | 7.36 | 6.61 | 7.41 | 7.05 | 6.44 | – | pIC50 [4]: 6.49
8 | COc1ccc(CCNC(=O)c2cnc(C(F)(F)F)nc2N2CCOCC2)cc1OC | – | – | – | – | – | – | 6.82 | –
